# Source: patent US20030216569A1, “Method of making HIV protease inhibitors” (priority 1993, published 2003)
# Structures can show the parent of a compound that is named as a salt. Where two headings read alike, the source gives them in different places.
# What was measured:
# HIV-1 protease = HIV-1 protease (Human immunodeficiency virus type 1 group M subtype B, UniProt P04585); test: Fluorescence HIV-1 Protease Inhibitor Assay (Pandex); format: biochemical; set-up: made in house; host or cells: E. coli K12 L507/pHP10D (NRRL B-18560)
# Description: A. Preparation of Protease and Gag Fractions
# Lyophils of E. coli K12 L507/pHP10D were obtained from the Northern Regional Research Laboratory, Peoria, Ill. 61604, under the accession number NRRL B-18560 (deposited Nov. 14, 1989). The lyophils were decanted into tubes containing 10 ml LB medium (10 g Bacto-tryptone, 5 g Bacto-yeast extract, and 10 g aqueous sodium chloride per liter; the pH was adjusted to 7.5 and incubated at 32° C. overnight).
# A small portion of the overnight culture was placed on LB-agar (LB medium with 15 g/L Bacto-agar) plates containing 12.5 micrograms/ml tetracycline in a manner so as to obtain a single colony isolate of E. coli K12 L507/pHP10D. The single colony obtained was inoculated into 10 ml of LB medium containing 12.5 micrograms/ml tetracycline and incubated overnight at 32° C. with vigorous shaking. The 10 ml overnight culture was inoculated into LB medium containing 12.5 micrograms/ml tetracycline and incubated at 32° C. with vigorous shaking until the culture reached mid-log phase. […]
# 3. Preparation of Protease Fraction
# A culture of E. coli K12 L507/pHP10D was grown to mid-log phase at 32° C. in LB media containing 12.5 micrograms/ml tetracycline. The cultivation temperature was quickly elevated to 40° C. to induce gene expression, and the cells were allowed to grow for 2.5 hours at this temperature before the culture was quickly chilled on ice. The cells were centrifuged and the cell pellet was resuspended in 20 ml of 50 mmol MES buffer (pH 6.0) containing 1 mmol EDTA, 1 mmol DTT, 1 mmol PMSF and 10% glycerol (“Buffer A”). Cells were lysed by sonication using a Fischer Model 300 Dismembrator and a microtip probe. Following centrifugation at 27,000×g, the supernatant was diluted to a total volume of 60 ml with Buffer A and loaded onto a 2.0×19 cm QAE-Sepharose column (1 ml/min, 4° C.), that had been equilibrated in Buffer A. The column was washed isocratically for 180 min and then eluted with a gradient eluent of […] aqueous sodium chloride in Buffer A over 120 min. Enzymatic activity was measured by HPLC using the synthetic peptide Ser-Gln-Asn-Tyr-Pro-Ile-Val as described in Margolin et al., Biochem. Biophys. Res. Commun., 167, 554-560 (1990); the production of the p1 peptide (Ser-Gln-Asn-Tyr) was measured.
# The active fractions were combined, adjusted to […] 1.2M in ammonium sulfate, and applied to a 2.0×18 cm hexyl agarose column that had been equilibrated in Buffer A containing 1.2M ammonium sulfate. The sample was loaded at a flow rate of 1 ml/min at 4° C., washed with the equilibration buffer for 240 min (1 ml/min) and then eluted using a reverse linear gradient of 1.2-0M ammonium sulfate in Buffer A for 120 min at the same flow rate. The column was then washed isocratically in Buffer A for 120 min.
# The active fractions were combined, concentrated to 10 ml using an Amicon stirred cell with a YM-10 membrane and then applied to a MonoS cation exchange column (1.0×10 cm) that had been equilibrated in Buffer A. The sample was loaded at a flow rate of 1 ml/min at 25° C. After washing isocratically for 30 min, the protease was eluted using a linear gradient of 0-0.45M aqueous sodium chloride in Buffer A over 40 min. The column was washed isocratically in Buffer A containing 0.45M aqueous sodium chloride for 30 minutes.
# The active fractions were combined and concentrated to 200 microliters using an Amicon stirred cell and a YM-10 membrane and then the protease was applied to a Superose 6 size exclusion column equilibrated in Buffer A containing 0.1M aqueous sodium chloride.
# [1] = test system: Viral SN123 infected CEM cells
# [2] = Human immunodeficiency virus 1, CCRF-CEM, read-out: Whole cell IC50 nM
# [3] = Human immunodeficiency virus 1, CCRF-CEM, read-out: Whole cell IC90 nM
# [4] = normalized to positive control (=1.0), * = a calculated average, read-out: Fluorescence Assay IC50 in ng/mL (converted)
# [5] = Human immunodeficiency virus 1, CCRF-CEM, read-out: Whole cell IC50 nM, CEM cells, values in parentheses are 35B in same assay
# [6] = value as run, 35B value of the same run in footnote or parentheses, read-out: Pandex IC50 ng/ml (converted)
# [7] = Human immunodeficiency virus 1, CCRF-CEM, read-out: Whole cell IC90 nM, CEM cells, values in parentheses are 35B in same assay
compound,measurement,setting,value
"Cc1c(O)cccc1C(=O)N[C@@H](CSc1ccccc1)[C@H](O)CN1C[C@H]2CCS[C@H]2C[C@H]1C(=O)NC(C)(C)C (relative stereo) [Example 74 I, [6S-(6R*, 3aS*, 7aR*, 2′S*, 3′S*)]-2-[2′-Hydroxy-3′-phenylthiomethyl-4′-aza-5′-oxo-5′-(2″-methyl-3″-hydroxyphenyl)pentyl]-octahydrothieno[3,2-c]pyridine-6-N-t-butyl carboxamide methanesulfonic acid salt]",IC50,"HIV-1 protease; Table 2, read-out: IC50 (Pandex)",0.3 nM
same,IC50,[1]; [2],4.06 nM
same,IC90,[1]; [3],9.74 nM
"Cc1c(F)cccc1C(=O)NC(Cc1ccccc1)C(O)CN1CC2CCCCC2CC1C(=O)NC(C)(C)C (stereo not drawn) [Example 7, [3S-(3R*,4aR*,8aR*,2′S*,3′R*)]-2-[2′-Hydroxy-3′-phenylmethyl-4′-aza-5′-oxo-5′-(2″-methyl-3″-fluorophenyl)pentyl] decahydroisoquinoline-3-N-t-butylcarboxamide]",IC50,HIV-1 protease; [4],474 nM
same,IC50,[1]; [5],323 nM
Cc1c(O)cccc1C(=O)N[C@@H](CSc1ccccc1)[C@H](O)CN1CCN(Cc2cccnc2)C[C@H]1C(=O)NC(C)(C)C [Example 19],IC50,HIV-1 protease; [4],0.528 nM
same,IC50,HIV-1 protease; [6],0.693 nM
same,IC50,[1]; [5],16.1 nM
same,IC90,[1]; [7],42 nM
"CC(C)(C)NC(=O)[C@@H]1CN(Cc2cccnc2)CCN1C[C@@H](O)[C@H](CSc1ccccc1)NC(=O)c1cccc2c1CCCN2 [Example 33, [3S-(2R*,2′S*,3′S*)]-1-[2′-Hydroxy-3′-phenylthiomethyl-4′-aza-5′-oxo-5′-(1″,2″,3″,4″-tetrahydroquinolin-5″-yl)pentyl]-4-(pyrid-3′″-ylmethyl)piperazine-2N-t-butylcarboxamide]",IC50,HIV-1 protease; [4],2.69 nM
same,IC50,HIV-1 protease; [6],3.17 nM
same,IC50,[1]; [5],39.5 nM
same,IC90,[1]; [7],200 nM
"CC(C)(C)NC(=O)C1CC2CCCCC2CN1CC(O)C(CSc1ccccc1)NC(=O)c1cccc2ncccc12 (stereo not drawn) [Example 31, [3S-(3R*,4aR*,8aR*,2′S*,3′S*)]-2-[2′-Hydroxy-3′-phenylthiomethyl-4′-aza-5′-oxo-5′-(quinolin-5″-yl)pentyl] decahydroisoquinoline-3-N-t-butylcarboxamide]",IC50,HIV-1 protease; [4],2.04 nM
same,IC50,HIV-1 protease; [6],5.94 nM
same,IC50,[1]; [5],430 nM
same,IC90,[1]; [7],884 nM
"Cc1c(OP(=O)(O)O)cccc1C(=O)N[C@@H](CSc1ccccc1)[C@H](O)CN1C[C@H]2CCCC[C@H]2C[C@H]1C(=O)NC(C)(C)C.Cl (relative stereo) [Example 80, [3S-(3R*, 4aR*, 8aR*, 2′S*, 3′S*)]-2-[2′-Hydroxy-3′-phenylthiomethyl-4′-aza-5′-oxo-5′-(2″-methyl-3″-Hydroxyphenyl)pentyl]-decahydroisoquinoline-3-N-t-butyl carboxamide 3″-Dihydrogen Phosphate Hydrochloride]",Pandex % at 22,"HIV-1 protease; at 22 (ng/ml), wrapped cell",0.3% at
same,IC50,HIV-1 protease; [6],5.85 nM
same,IC50,[1]; [5],8.99 nM
same,IC90,[1]; [7],27.9 nM
"[2S-(2R*,2′S*,3′S*)]-1-[2′-Hydroxy-3′-phenylthiomethyl-4′-aza-5′-oxo-5′-(quinolin-5″-yl)pentyl]-4-(pyrid-3′″-ylmethyl)piperazine-2N-t-butylcarboxamide [Example 34]",Fluorescence Assay IC50,"HIV-1 protease; normalized to positive control (=1.0), * = a calculated average",4.5 ng/mL
same,Pandex IC50 ng/ml,"HIV-1 protease; value as run, 35B value of the same run in footnote or parentheses",5.4^b ng/ml
same,IC50,"[1]; read-out: Whole cell IC50 nM, CEM cells, values in parentheses are 35B in same assay",149 nM
same,IC90,"[1]; read-out: Whole cell IC90 nM, CEM cells, values in parentheses are 35B in same assay",564 nM
"CC(C)(C)NC(=O)C1CC2CCCCC2CN1CC(O)C(CSc1ccccc1)NC(=O)c1cccc2c1CCCN2 (stereo not drawn) [Example 32, [3S-(3R*,4aR*,8aR*,2′S*,3′S*)]-2-[2′-Hydroxy-3′-phenylthiomethyl-4′-aza-5′-oxo-5′-(1″,2″,3″,4″-tetrahydroquinolin-5″-yl)pentyl] decahydroisoquinoline-3-N-t-butylcarboxamide]",IC50,HIV-1 protease; [4],0.877 nM
same,IC50,HIV-1 protease; [6],2.53 nM
same,IC50,[1]; [5],539 nM
same,IC90,[1]; [7],2310 nM
"Cc1ccccc1C(=O)NC(CSc1ccccc1)C(O)CN1CC2CCCCC2CC1C(=O)NC(C)(C)C (stereo not drawn) [Example 29, [3S-(3R*,4aR*,8aR*,2′S*,3′S*)]-2-[2′-Hydroxy-3′-phenylthiomethyl-4′-aza-5′-oxo-5′-(2″-methyl-phenyl)pentyl] decahydroisoquinoline-3-N-t-butylcarboxamide]",IC50,HIV-1 protease; [4],3.08 nM
same,IC50,HIV-1 protease; [6],3.62 nM
same,IC50,[1]; [5],1590 nM
same,IC90,[1]; [7],4460 nM
"Cc1c(O)cccc1C(=O)N[C@@H](CSc1ccc(F)cc1)[C@H](O)CN1C[C@H]2CCCC[C@H]2C[C@H]1C(=O)NC(C)(C)C (relative stereo) [Example 92, [3S-(3R*, 4aR*, 8aR*, 2′S*, 3′R*)]-2-(2′-Hydroxy-3′-(4′″-fluoro)phenylthiomethyl-4′-aza-5′-oxo-5′-(2″-methyl-3″-hydroxyphenyl)pentyl]-decahydroisoquinoline-3-N-t-butyl carboxamide]",IC50,HIV-1 protease; [6],< 0.273 nM
same,IC50,[1]; [2],2.01 nM
same,IC90,[1]; [3],57 nM
